Laboratory results as given in patent US20040106802A1, “Novel compounds and therapeutic uses thereof” (TORRENT PHARMACEUTICALS LTD., priority 2002, published 2004).
Where a name gives a salt, the structure may show the parent alone. Read-outs that look alike come from different tables or passages of the source.

Legend:
[1] = In-vitro free radical scavenging activity using DPPH free radical; conditions: 30° C., 30 minutes, 515 nm
Source text: Free Radical Scavenging Activity:
To determine the in-vitro free radical scavenging activity of compounds of general formula-I on 2,2,-diphenyl-1-picrylhydrazyl (DPPH)radical (Ref: W. Brand-Williams, M. E. Cuvelier, C. Berset “Use of a free radical method to evaluate antioxidant activity”, Lebensm.- Wiss.u.Technol.,1995,28,Nr.1:25-30).
To evaluate the free radical scavenging activity of compounds they are allowed to react with stable radical DPPH*. In its radical form, DPPH* absorbed at the characteristic wave length of 515 nm, but upon reduction by an antioxidant or radical scavenger (AH), the absorption disappears.
10^−4M solution of DPPH* was prepared in methanol.
Various concentrations (10 mM, 1 mM, 0.5 mM, 0.25 mM and 0.125 mM) of drug solutions were prepared in methanol.
900 μl of DPPH radical solution was added to an eppendorf tube. To it was added 100 μl of methanol.
900 μl of DPPH radical solution was added to an eppendorf tube. To it was added 100 μl of various concentrations of drug solutions in methanol.
The absorbance of control and test samples was recorded after incubation at 30° C. for 30 minutes, at 515 nm taking methanol as blank.
The percent antioxidant activity was calculated according to the formula:
% Antioxidant activity=100−[O.D of test sample/O.D of control*100]

[2] = biological target: T1, Porcine DPP-IV (Sus scrofa, UniProt P22411); test: Assay of DPP-IV enzyme inhibitory activity (spectrophotometric, Gly-Pro-pNA cleavage); type: biochemical
T1 construct: purchased Sigma-Aldrich Germany

[3] = Porcine DPP-IV, Gly-Pro-pNA substrate, 30° C., mean ± SD of three experiments except compound Nos. 133 & 139, read-out: IC50 (μM) Mean ± SD, inhibitory activity on DPP-IV enzyme activity
[4] = read-out: dipeptidyl peptidase-IV inhibitory IC50's in the range

T1 sequence (P22411 whole entry): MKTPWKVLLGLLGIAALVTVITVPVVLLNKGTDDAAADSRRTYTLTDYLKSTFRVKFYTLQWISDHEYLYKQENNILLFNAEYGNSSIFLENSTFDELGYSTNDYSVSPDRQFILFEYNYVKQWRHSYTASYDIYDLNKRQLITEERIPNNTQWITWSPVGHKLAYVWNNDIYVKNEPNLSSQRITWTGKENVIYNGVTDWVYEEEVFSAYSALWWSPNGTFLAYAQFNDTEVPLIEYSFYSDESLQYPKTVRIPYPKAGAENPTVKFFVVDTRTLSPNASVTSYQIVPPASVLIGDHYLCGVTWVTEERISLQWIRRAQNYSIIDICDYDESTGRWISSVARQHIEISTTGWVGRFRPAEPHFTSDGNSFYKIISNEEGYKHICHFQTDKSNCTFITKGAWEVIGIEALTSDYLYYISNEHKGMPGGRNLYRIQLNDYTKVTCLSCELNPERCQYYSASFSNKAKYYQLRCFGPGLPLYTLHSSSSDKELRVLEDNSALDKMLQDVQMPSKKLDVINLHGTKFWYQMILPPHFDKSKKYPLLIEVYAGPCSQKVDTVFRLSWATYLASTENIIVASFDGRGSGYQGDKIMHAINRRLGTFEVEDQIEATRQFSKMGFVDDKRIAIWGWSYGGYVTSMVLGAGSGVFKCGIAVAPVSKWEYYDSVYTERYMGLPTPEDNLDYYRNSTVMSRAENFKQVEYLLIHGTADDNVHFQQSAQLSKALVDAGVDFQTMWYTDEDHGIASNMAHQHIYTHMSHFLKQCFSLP

CCNN(CC(=O)N1CSCC1C#N)C1CCC(NS(C)(=O)=O)CC1 (stereo not drawn) [Compound No. 97, 3-[1-oxo-2-[1-(1-(methanesulphonyl)aminocyclohexan-4-yl)-2-ethyl]hydrazino]ethyl-4-cyanothiazolidine]
% Activity (antioxidant, DPPH) ([1]; Concentration 12.5 μM): 18.06%
% Activity (antioxidant, DPPH) ([1]; Concentration 25 μM): 38.30%
% Activity (antioxidant, DPPH) ([1]; Concentration 50 μM): 66.99%
% Activity (antioxidant, DPPH) ([1]; Concentration 100 μM): 91.67%
IC50 [2, 3]: 1.03 ± 0.07 µM

CC(C)(C)C(=O)NC1CCC(N(N)CC(=O)N2CSCC2C#N)CC1.O=C(O)C(F)(F)F (stereo not drawn) [Compound No. 98, 3-[1-oxo-2-[(1-(trimethylacetamido)cyclohexan-4-yl)]hydrazino]ethyl-4-cyanothiazolidine trifluoroacetate]
% Activity (antioxidant, DPPH) ([1]; Concentration 12.5 μM, 12.5 µM): 21.99%
% Activity (antioxidant, DPPH) ([1]; Concentration 25 μM, 25 µM): 40.77%
% Activity (antioxidant, DPPH) ([1]; Concentration 50 μM, 50 µM): 59.21%
% Activity (antioxidant, DPPH) ([1]; Concentration 100 μM, 100 µM): 73.35%
IC50 [2, 3]: 0.71 ± 0.01 µM

N#Cc1ccc(NC(=O)CN2CCC(N(N)CC(=O)N3CSCC3C#N)CC2)cc1 (stereo not drawn) [Compound No. 99, 3-[1-oxo-2-[1-(1-(2-oxo-2-(4-cyanophenyl)aminoethyl)piperidin-4-yl)]hydrazino]ethyl-4-cyanothiazolidine bis-trifluoroacetate]
% Activity (antioxidant, DPPH) ([1]; Concentration 12.5 μM): 15.12%
% Activity (antioxidant, DPPH) ([1]; Concentration 25 μM): 24.87%
% Activity (antioxidant, DPPH) ([1]; Concentration 50 μM): 39.13%
% Activity (antioxidant, DPPH) ([1]; Concentration 100 μM): 53.33%
IC50 [2, 3]: 0.2 ± 0.04 µM
IC50 [2, 4]: 0.088 to 0.25 µM

CCNN(CC(=O)N1CSCC1C#N)C1CCN(CC(=O)Nc2ccc(Cl)cn2)CC1 (stereo not drawn) [Compound No. 101, 3-[1-oxo-2-[1-(1-(2-oxo-2-(5-chloropyridin-2-yl)aminoethyl)piperidin-4-yl)]-2 ethylhydrazino]ethyl-4-cyanothiazolidine tris-hydrochloride]
% Activity (antioxidant, DPPH) ([1]; Concentration 12.5 μM): 20.41%
% Activity (antioxidant, DPPH) ([1]; Concentration 25 μM): 31.00%
% Activity (antioxidant, DPPH) ([1]; Concentration 50 μM): 32.19%
% Activity (antioxidant, DPPH) ([1]; Concentration 100 μM): 61.15%
IC50 [2, 3]: 0.488 ± 0.017 µM

N#CC1CSCN1C(=O)CN(N)C1CCN(CC(=O)Nc2ccc(C(F)(F)F)cc2)CC1 (stereo not drawn) [Compound No. 102, 3-[1-oxo-2-[-1-(1-(2-oxo-2(4-trifluorophenyl)aminoethyl)piperidin-4-yl)]hydrazino]ethyl-4-cyanothiazolidine bis-trifluoroacetate]
% Activity (antioxidant, DPPH) ([1]; Concentration 12.5 μM): 20.90%
% Activity (antioxidant, DPPH) ([1]; Concentration 25 μM): 29.56%
% Activity (antioxidant, DPPH) ([1]; Concentration 50 μM): 34.26%
% Activity (antioxidant, DPPH) ([1]; Concentration 100 μM): 50.15%
IC50 [2, 3]: 0.308 ± 0.06 µM

N#CC1CSCN1C(=O)CN(N)C1CCN(CC(=O)NC23CC4CC(CC(C4)C2)C3)CC1 (stereo not drawn) [Compound No. 103, 3-[1-oxo-2-[1-(1-(2-oxo-2(-adamant-1-yl)aminoethyl)piperidin-4-yl)]hydrazino]ethyl-4-cyanothiazolidine bis-trifluoroacetate]
% Activity (antioxidant, DPPH) ([1]; Concentration 12.5 μM): 20.41%
% Activity (antioxidant, DPPH) ([1]; Concentration 25 μM): 40.80%
% Activity (antioxidant, DPPH) ([1]; Concentration 50 μM): 44.09%
% Activity (antioxidant, DPPH) ([1]; Concentration 100 μM): 54.81%
IC50 [2, 3]: 0.523 ± 0.017 µM

N#CC1CSCN1C(=O)CN(N)C1CCN(CC(=O)Nc2ncccn2)CC1 (stereo not drawn) [Compound No. 106, 3 [2-oxo-2-[1-(1-(2-oxo-2(pyrimidin-2-yl)aminoethyl)piperidin-4-yl)]hydrazino]ethyl-4-cyanothiazolidine tris-trifluoroacetate]
% Activity (antioxidant, DPPH) ([1]; Concentration 12.5 μM): 24.86%
% Activity (antioxidant, DPPH) ([1]; Concentration 25 μM): 42.52%
% Activity (antioxidant, DPPH) ([1]; Concentration 50 μM): 70.39%
% Activity (antioxidant, DPPH) ([1]; Concentration 100 μM): 72.86%
IC50 [2, 3]: 0.143 ± 0.02 µM

N#CC1CSCN1C(=O)CN(N)C1CCN(CC(=O)NC2CC2)CC1 (stereo not drawn) [Compound No. 108, 3[1-oxo-2-[1-(1-(2-oxo-2-(cyclopropyl)aminoethyl)piperidin-4-yl)]hydrazino]ethyl-4-cyanothiazolidine bis-trifluoroacetate]
% Activity (antioxidant, DPPH) ([1]; Concentration 12.5 μM): 20.19%
% Activity (antioxidant, DPPH) ([1]; Concentration 25 μM): 26.25%
% Activity (antioxidant, DPPH) ([1]; Concentration 50 μM): 34.71%
% Activity (antioxidant, DPPH) ([1]; Concentration 100 μM): 52.72%
IC50 [2, 3]: 0.236 ± 0.025 µM
IC50 [2, 4]: 0.088 to 0.25 µM

CS(=O)(=O)NC1CCC(N(N)CC(=O)N2CSCC2C#N)CC1 (stereo not drawn) [Compound No. 114, 3-[1-oxo-2-(1-(1-methanesulphonylamino-4-cyclohexyl)hydrazino)]ethyl-4-cyanothiazolidine hydrochloride]
% Activity (antioxidant, DPPH) ([1]; Concentration 12.5 μM): 19.23%
% Activity (antioxidant, DPPH) ([1]; Concentration 25 μM): 39.37%
% Activity (antioxidant, DPPH) ([1]; Concentration 50 μM): 78.16%
% Activity (antioxidant, DPPH) ([1]; Concentration 100 μM): 92.76%
IC50 [2, 3]: 0.397 ± 0.02 µM

N#CC1CSCN1C(=O)CN(N)C1CCN(CC(=O)Nc2ncc(Br)s2)CC1 (stereo not drawn) [compound 117, 3-[1-oxo-2-(1-(1-(2-oxo-2-(5-bromothiazol-2-yl)aminoethyl)piperidine-4-yl))hydrazino]ethyl-4-cyanothiazolidine, tris-trifluoroacetate]
% Activity (antioxidant, DPPH) ([1]; Concentration 100 μM): 53.44%
IC50 [2, 3]: 0.226 ± 0.005 µM

Cc1nc(NC(=O)CN2CCC(N(N)CC(=O)N3CSCC3C#N)CC2)sc1C (stereo not drawn) [compound 119, 3-[1-oxo-2-(1-(1-(2-oxo-2-(4,5-dimethylthiazole-2-yl)aminoethyl)piperidin-4-yl)) hydrazino]ethyl-4-cyanothiazolidine, tris-trifluoroacetate]
% Activity (antioxidant, DPPH) ([1]; Concentration 100 μM): 54.93%
IC50 [2, 3]: 0.185 ± 0.01 µM

N#Cc1ccc(NC(=O)CN2CCC(N(N)CC(=O)N3CSCC3C#N)CC2)nc1 (stereo not drawn) [compound 120, 3-[1-oxo-2-(1-(1-(2-oxo-2(5-cyanopyridin-2-yl)aminoethyl)piperidin-4-yl))hydrazino]ethyl-4-cyanothiazolidine, tris-trifluoroacetate]
% Activity (antioxidant, DPPH) ([1]; Concentration 100 μM): 55.03%
IC50 [2, 3]: 0.09 ± 0.02 µM

N#CC1CSCN1C(=O)CN(N)C1CCN(CC(=O)Nc2ccc3c(c2)OCO3)CC1 (stereo not drawn) [compound 130, 3-[1-oxo-2-(1-(1-(2-oxo-2-(3,4-methelenedioxyphenyl)aminoethyl)piperidine-4-yl))hydrazino]ethyl-4-cyanothiazolidine, bis-trifluoroacetate]
% Activity (antioxidant, DPPH) ([1]; Concentration 100 μM): 56.37%
IC50 [2, 3]: 0.24 ± 0.025 µM

N#CC1CSCN1C(=O)CN(N)C1CCN(CC(=O)Nc2ccc(S(N)(=O)=O)cc2)CC1 (stereo not drawn) [compound 131, 3-[1-oxo-2-(1-(1-(2-oxo-2-(4-aminosulphonylphenyl)aminoethyl)piperidin-4-yl))hydrazino]ethyl-4-cyanothiazolidine, bis-trifluoroacetate]
% Activity (antioxidant, DPPH) ([1]; Concentration 100 μM): 57.73%
IC50 [2, 3]: 0.0985 ± 0.012 µM
